In patent US5100647A, “Method and formulations for the therapy of cystic fibrosis, Bartter's syndrome and secretory diarrheas, and for diuretic treatment” (The Trustees of the University of Pennsylvania, priority 1990, dated 1992):
Structures can show the parent of a compound that is named as a salt. Where two headings read alike, the source gives them in different places.

Columns and labels:
[1] = cited from earlier work
[2] = test system: potassium conductance of pancreatic beta cells; conditions: cited from earlier work
[3] = cited from earlier work; remark: listed apart in the source
chloride channel = assay: whole-cell patch clamp of chloride channel current in isolated cells from a cultured kidney cell line
Excerpt: Using isolated cells from a cultured kidney cell line, we tested the effects of various doses of Sparteine applied to the interior and exterior of the cell on current through the chloride channel as measured with standard patch clamp electrophysiologic techniques.

[4] = test system: chloride conductance of CF/T43 cells; assay: whole-cell chloride current in CF/T43 cystic fibrosis airway epithelial cells; assay type: cell-based, human
Method: An aliquot of cells from a cell line, CF/T43, derived from airway epithelia from a patient with cystic fibrosis were used.
Data were obtained using internal and external solutions as described by McCann, Li and Welsh in studies of whole cell ICI in normal human airway epithelial cells so as to be able to compare our data with theirs. The internal solutions are cesium-based providing a minimal internal calcium concentration (nominally 0-10 nM, with EGTA) and the external solution is sodium-based with symmetrical CI concentrations of 140 mM. No cyclic nucleotides are included in the solutions and amiloride is added to block the sodium conductance.

potassium channel = conditions: requires millimolar concentrations; cited from earlier work
sodium channels = sodium channels (Cavia porcellus, UniProt A0A286Y3I8); conditions: requires millimolar concentrations; cited from earlier work

Compound: C1CCN2C[C@@H]3C[C@@H](CN4CCCC[C@@H]34)[C@H]2C1 [Sparteine sulfate]
- insulin secretion ([1]; healthy human beings): enhance insulin secretion
- glucagon secretion ([1]; insulin-dependent diabetics): increase glucagon secretion
- insulin secretion ([1]; non-diabetic obese individuals, intravenous administration): significant increase in insulin secretion
- potassium conductance of pancreatic beta cells [2]: decreases the potassium conductance
- water solubility and stability [3]: water soluble and stable

Compound: C1CCN2CC3CC(CN4CCCCC34)C2C1 (stereo not drawn) [Sparteine, dodecahydro-7,14-methano-2H,6H-di-pyrido[1,2-a:1',2'-e][1,5]diazocine]
- chloride current relative to the control value (chloride channel; Sparteine 0.1, 50 and 500 μM): 10-20 X
- peak current through the chloride channel (chloride channel; Sparteine 0.1, 50 and 500 μM, cells dialyzed with ATP, no cAMP, 10 nM calcium, depolarized to +70 mV from holding potential -45 mV): 80-200 μA/cm^2
- time course of the activated current with increasing dose (chloride channel; above 0.1 μM): increasingly rapid decline in the activated current
- effect of externally applied compound on chloride current (chloride channel; external, 0.1 to 10 nM): marked augmentation of the chloride current
- effect on the chloride channel at higher concentrations (chloride channel; higher (micromolar-millimolar) concentrations): potent inhibitor
- effect on the chloride channel at low concentrations (chloride channel; low (pico-nanomolar) concentrations): very potent activator
- current amplitude ([4]; external 0.1 nM, no cyclic nucleotides, minimal internal calcium, amiloride present): marked increase in current amplitude
- reversal potential of the induced current ([4]; external 0.1 nM, symmetrical Cl 140 mM): 0 mV
- induction of chloride current in cystic fibrosis cells ([4]; pM, absence of cytosolic Ca^2+ and cyclic nucleotides): induces a chloride current
- reversibility of the activated current ([4]; washout): reversible
- action on olfactory tract axons (potassium channel): potassium channel blocker
- antiarrhythmic classification due to effects on sodium channels (sodium channels): Class 1 cardiac antiarrhythmic

Compound: calcium
- maximum chloride current with known activator added to the internal solution (chloride channel; depolarized to +70 mV from -45 mV): 40-50
